Source: patent publication EP4311550A1, “CHLOROPHYLLIDE DERIVATIVES FOR USE IN THE PREVENTION OR TREATMENT OF BACTERIAL INFECTION” (Université de Liège, priority 2022, dated 2024)
Where “and” joins values, the source holds several entries; their conditions need not be identical. Equal entries are not always repeated.

Legend:
Assay type in all cases: cell-based
[1] = tested on: Staphylococcus aureus (ATCC 25923); experiment: disk diffusion assay (growth inhibition halo); conditions: for inhibition diameter (in brackets), in presence of light: Petri dishes incubated in presence of light; for inhibition diameter (in brackets), in the dark: incubation in the dark; for activity of inhibition of S. aureus growth: preparative HPLC fractions redissolved in MeOH/H2O 75%, disk diffusion assay, Figure 3
Method: The antimicrobial activity of these extracts was tested against Gram-positive and Gram-negative bacteria, yeasts and fungi by the diffusion disk method. The bacteria tested were Staphylococcus aureus (ATCC 25923), Enterococcus faecium (ATCC 19434), Escherichia coli (ATCC 25922), Pseudomonas aeruginosa (ATCC 27853), Klebsiella pneumoniae (ATCC 13883), methicillin resistant S. aureus (MRSA, ATCC43300) and Bacillus subtilis 168. The yeasts tested were Candida albicans (MUCL 29800), Saccharomyces cerevisiae (MUCL 31497) and the fungus Aspergillus niger (IHEM 3415). Mueller-Hinton II culture medium was used for cultivating S.aureus, E. coli, P. aeruginosa and K. pneumoniae; Brain Heart infusion Broth for E. faecium; Yeast Peptone Dextrose Broth for C. albicans and A. niger and S. cerevisiae. Agar plates with the appropriate medium were inoculated from the glycerol stock culture and Petri dishes were incubated overnight at 37°C for bacteria and at 28°C during 48 hours for the other strains. Colonies or spores (forA. niger) were then resuspended in a sterile solution of NaCl 0.85% to obtain a OD600 between 0.08 and 0.1 at 600 nm (which corresponds to tube of 0.5 on McFarland scale). Sterile cotton buds were soaked with the suspension and the micro-organisms were spread onto the Petri dish. Five sterile disks of chromatography paper (Whatman 3MM) with a diameter of 6,0 mm were placed on the agar plate. Two disks were respectively used for positive (1 mg/ml kanamycin for S. aureus, B. subtilis, E. coli and K. pneumoniae; 25 mg/ml kanamycin for E. faecium; 0,01 mg/ml ciprofloxacin for P. aeruginosa; 20 and 0,01 mg/ml cycloheximide for A. niger and S. cerevisiae, respectively; 0,1 mg/ml nystatin for C. albicans) and negative (MeOH/H2O 75/25%) controls. The remaining disks were used to test the compound of interest in triplicate. On each disk, 10 µl were loaded on the paper disk in two steps (2 x 5 µl) letting the paper dry between the two loadings. The Petri dishes were then incubated as described above. The antimicrobial activity of compounds of interest was visualized by its growth inhibition halo. […] Table 1: Inhibition diameter of the crude methanol 75% extract of spray-dried powder of Scenedemus sp. S4 and freeze-dried powders of D. armatus S0
The injection volume was fixed at 100 µL, the sample temperature in the autosampler was 10°C and the column was thermostatized at 37°C. The effluent was monitored by a photodiode array detector (Waters 2998 PDA detector, detection range: 200-800 nm) and collected using an automatic fraction collector (Waters Fraction Collector III, volume fraction: 500 µl). The collected fractions were then dried by using a vacuum centrifuge (Speedvac vacuum concentrator Savant SPD-111V, Thermo Scientific) and redissolved in 500 µL of MeOH/H2O 75% (75/25 v/v) and assayed for their capacity to inhibit the growth of S. aureus (disk assay as described above). Several fractions were selected for their antibacterial activity and preparative purifications were then carried out to obtain higher quantities of these compounds to allow their identification and subsequently their characterization.
Preparative chromatography was carried out by using an AKTA explorer system (GE Healthcare) and a preparative reverse phase column (Nucleodur C18 Gravity, 5 µm particule size, length x internal diameter: 25 cm x 1 cm) The chromatogram was recorded at 3 different wavelengths: 230 nm, 430 nm and 650 nm. The volume injected was 2 ml and the flow rate fixed at 2 ml/min. The same buffers as those used during analytical separation were selected and the gradient adapted to the column volume. Fraction size was adapted in such a way that one peak corresponded to one collected fraction. These fractions were then dried with a vacuum centrifuge and redissolved in 500 µL of MeOH/H2O 75%. Figure 3 presents the chromatogram obtained at 430 nm. […]

[2] = tested on: S. aureus (ATCC25923); experiment: minimum inhibitory concentration by microdilution method; conditions: 37°C, in the dark, 24 hours, Mueller-Hinton broth; 1:40 dilution factor of 58.03 µg/ml stock
Method: The minimum inhibitory concentration (MIC) of 13^2-hydroxy-methylchlorophyllide a for S. aureus was determined using the microdilution method. In a 48-well plate, 500 µl of Mueller-Hinton broth were placed in each well. Then, 500 µl of a dilute solution of 13^2-hydroxy-methylchlorophyllide a (stock solution in MeOH/H2O 75% diluted 5x by Mueller-Hinton broth) were added to the first well and serial 2-fold dilutions were made by transferring 500 µL from one well to the next. For the last well, 500 µl were discarded. A culture of S. aureus (ATCC25923) growing in exponential phase was diluted with sterile NaCl 0.85% (w/v) to obtain a bacterial suspension corresponding to 0.5 tube McFarland unit and then dispensed in 500 µl aliquots in the 48 well plate. After covering the 48-plate with its lid, it was incubated at 37°C under agitation and in the dark for 24 hours. The MIC was defined as the last dilution for which no visible bacterial growth was observed. The concentration of the active compound was determined on the basis of a calibration line obtained by injecting increasing volumes of a solution of pure chlorophyllide a standard on a reverse-phase HPLC column.

[3] = tested on: S. aureus; experiment: viable count (CFU per ml) after addition of compound; conditions: 1 or 4 x MIC, in the dark
Method: To distinguish between these two antibacterial activities, the number of viable S. aureus were determined by counting the colonies forming units (CFU) per ml of culture before the addition of the chlorophyllide derivative (t=0 h) and after 2 and 4 hours. […] The negative control is represented in black, while cultures treated with 1x and 4xMIC of purified S fraction are hatched and dotted respectively. The data presented are the average values of three independent experiments.
For culture without addition of chlorophyllide derivative (negative control, only addition of MeOH/H2O 75%) S. aureus maintained its growth and CFU/ml increased. On the contrary, once 13^2-hydroxy-methylchlorophyllide a was added (1 or 4 x MIC value in MeOH/H2O 75%, final concentration), the number of CFU/ml decreased of at least four logarithmic steps (4 log10). This means that the chlorophyllide derivative killed, in the dark, more than 99.99% of the bacterial population. The same result was observed after 2 and 4 hours even if for this latter culture a slight return of bacterial growth was observed.

[4] = tested on: S. aureus; experiment: growth curve (OD600) of an early exponential culture after addition of compound; conditions: 1x and 4x the MIC, directly after addition, in the dark
Method: To further characterize the antibacterial action of 13^2-hydroxy-methylchlorophyllide a, a S. aureus culture in its early exponential phase of growth was submitted to the action of the chlorophyllide derivative. 100 ml of Mueller-Hinton broth were inoculated with an overnight culture of S. aureus to obtain a bacterial density corresponding to an optical density at 600 nm (OD^600) = 0.05. This culture was then incubated at 37°C under orbital shaking (240 rpm) by using an Aquatron (Infors) shaker. Once the cells enter early exponential growth (OD^600= 0.2), the culture was subdivided into three 20 ml cultures. For two cultures, 13^2-hydroxy-methylchlorophyllide a solubilized in MeOH/H2O 75% was added to reach a final concentration equal to 1x and 4x the MIC, respectively. For the third culture (control culture), a corresponding volume of MeOH/H2O without any chlorophyllide compound was added. In Figure 7 the optical density as a function of time is presented. The addition of the compounds occurred after 75 minutes. […] OD^600 remained unchanged during the whole experiment. This observation supports the hypothesis that no bacterial cell lysis takes place and that the antibacterial activity of 13^2-derivative is either bacteriostatic or non-lytic bactericidal.

[5] = tested on: red blood cell; experiment: sheep erythrocyte lysis assay; conditions: after 120 min, at 4 x MIC, 37°C
Method: Activity of 13^2-hydroxy-methylchlorophyllide a on red blood cell was determined using a sheep erythocyte lysis assay. The lytic action was assessed on defibrinated sheep blood (bioTRADING). The erythrocytes were harvested by centrifugation (1500 rpm, 5 min) and washed 10 times with phosphate buffer saline (PBS). The red blood cells were then diluted 25 times with PBS and washed two more times to obtain a colourless supernatant after a centrifugation at 3000 g for 5 minutes. Samples of 1 ml of red blood cells (25 times diluted) are transferred in Eppendorf tubes and the 13^2-hydroxy-methylchlorophyllide a, dissolved in MeOH/H2O 75% (v/v), was added to obtain a final concentration equal to 1x or 4x MIC. The tubes are then incubated at 37°C at 300 rpm by using a thermomixer HC (Starlab) and 100 µl samples were withdrawn at time 0, 5, 10, 15, 30, 60 and 120 min. […]
The erythrocyte lysis was highlighted by the presence of haemoglobin in the supernatant and quantified by measuring the absorbance of the supernatant at 540 nm by means of a microplate reader Tecan infinite200 pro. The percentage lysis was calculated as follows: % lysis = (AChl^540 −APBS^540)/(ASDS 0.1%^540) × 100 [formula] wherein AChl is the absorbance of the tested compound, APBS is the measured absorbance of the PBS solution and ASDS is the absorbance of the SDS solution (positive control), each at the wavelength of 540 nm. […]

| Molecule | inhibition diameter (in brackets), in presence of light ([1]; disk diameter 6,0 mm) [cm] | inhibition diameter (in brackets), in the dark ([1]; disk diameter 6,0 mm) [cm] | activity of inhibition of S. aureus growth [1] | also measured |
| --- | --- | --- | --- | --- |
| 13^2-hydroxy-chlorophyllide a [listing 1 of 2 here] | 0.86 | 0.69 | – | – |
| 13^2-hydroxy-chlorophyllide a [listing 2 of 2 here] | – | – | active | – |
| 13^2-hydroxy-chlorophyllide b [listing 1 of 2 here] | 0.70 | 0.72 | – | – |
| 13^2-hydroxy-chlorophyllide b [listing 2 of 2 here] | – | – | active | – |
| 13^2-hydroxy-methylchlorophyllide a [listing 1 of 2 here] | 1.12 | 0.80 | – | MIC [2]: 1.45 µg/mL; activity of inhibition of S. aureus growth ([1]; listed as S): most active; decrease of the number of CFU/ml ([3]; after 2 and 4 hours): ≥ 4 log10; bacterial population killed [3]: more than 99.99%; S. aureus growth (OD600) [4]: growth was stopped; percentage of red blood cell hemolysis [5]: lower than 10% |
| 13^2-hydroxy-methylchlorophyllide a [listing 2 of 2 here] | – | – | active | – |
| 13^2-hydroxy-methylchlorophyllide b | 0.87 | 0.73 | – | – |
| 13^2-hydroxy-methylchlorophyllide b [K] | – | – | active | – |
| NC[C@H]1O[C@H](O[C@H]2[C@H](O)[C@@H](O[C@H]3O[C@H](CO)[C@@H](O)[C@H](N)[C@H]3O)[C@H](N)C[C@@H]2N)[C@H](O)[C@@H](O)[C@@H]1O [Positive control, kanamycin, reference compound] | – | – | – | Inhibition diameter, Positive control ([1]; positive control disk on the plate of the named extract (1 mg/ml kanamycin for S. aureus), 10 µl per disk, disk diameter 6,0 mm): 2.10 cm and 1.62 cm |
| C=CC1=C(C)C2=NC1=CC1=NC(=Cc3[n-]c4c(c3C)=C([O-])C(C(=O)OC)C=4C3=NC(=C2)C(C)C3CCC(=O)OC)C(CC)=C1C.[Mg+2] (centres unmarked) [methyl chlorophyllide a, reference compound] | – | 0.60 | – | – |
